Experiment [1] is described as follows: Counterscreen for AddAB inhibitors: absorbance-based bacterial cell-based high throughput dose response assay for inhibitors of bacterial viability. [Related pubchem assays (depositor defined):AID435030, AID449728, AID449731, AID488942, AID488955, AID488956]. It counts as functional.
The target in experiment [2] is T1, Exodeoxyribonuclease V (Escherichia coli (strain K12), UniProt P04993+P07648+P08394).
T1 sequence (P04993 whole entry): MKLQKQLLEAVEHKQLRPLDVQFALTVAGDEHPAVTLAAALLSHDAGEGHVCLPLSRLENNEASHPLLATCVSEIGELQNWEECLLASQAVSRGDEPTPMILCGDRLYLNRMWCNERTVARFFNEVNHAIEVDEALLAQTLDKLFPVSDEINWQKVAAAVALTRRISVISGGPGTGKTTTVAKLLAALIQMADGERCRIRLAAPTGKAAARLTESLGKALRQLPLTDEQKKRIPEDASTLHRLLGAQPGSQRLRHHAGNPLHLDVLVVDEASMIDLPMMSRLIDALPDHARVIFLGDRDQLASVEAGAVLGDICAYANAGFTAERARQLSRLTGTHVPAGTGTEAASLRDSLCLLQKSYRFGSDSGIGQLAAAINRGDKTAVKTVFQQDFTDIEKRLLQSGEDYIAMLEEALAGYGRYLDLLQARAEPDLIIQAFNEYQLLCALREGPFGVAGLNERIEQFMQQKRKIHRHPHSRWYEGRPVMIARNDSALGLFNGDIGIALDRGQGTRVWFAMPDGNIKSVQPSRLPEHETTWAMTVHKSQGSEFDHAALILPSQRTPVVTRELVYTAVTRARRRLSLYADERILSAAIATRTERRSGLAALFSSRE
T1 sequence (P07648 whole entry): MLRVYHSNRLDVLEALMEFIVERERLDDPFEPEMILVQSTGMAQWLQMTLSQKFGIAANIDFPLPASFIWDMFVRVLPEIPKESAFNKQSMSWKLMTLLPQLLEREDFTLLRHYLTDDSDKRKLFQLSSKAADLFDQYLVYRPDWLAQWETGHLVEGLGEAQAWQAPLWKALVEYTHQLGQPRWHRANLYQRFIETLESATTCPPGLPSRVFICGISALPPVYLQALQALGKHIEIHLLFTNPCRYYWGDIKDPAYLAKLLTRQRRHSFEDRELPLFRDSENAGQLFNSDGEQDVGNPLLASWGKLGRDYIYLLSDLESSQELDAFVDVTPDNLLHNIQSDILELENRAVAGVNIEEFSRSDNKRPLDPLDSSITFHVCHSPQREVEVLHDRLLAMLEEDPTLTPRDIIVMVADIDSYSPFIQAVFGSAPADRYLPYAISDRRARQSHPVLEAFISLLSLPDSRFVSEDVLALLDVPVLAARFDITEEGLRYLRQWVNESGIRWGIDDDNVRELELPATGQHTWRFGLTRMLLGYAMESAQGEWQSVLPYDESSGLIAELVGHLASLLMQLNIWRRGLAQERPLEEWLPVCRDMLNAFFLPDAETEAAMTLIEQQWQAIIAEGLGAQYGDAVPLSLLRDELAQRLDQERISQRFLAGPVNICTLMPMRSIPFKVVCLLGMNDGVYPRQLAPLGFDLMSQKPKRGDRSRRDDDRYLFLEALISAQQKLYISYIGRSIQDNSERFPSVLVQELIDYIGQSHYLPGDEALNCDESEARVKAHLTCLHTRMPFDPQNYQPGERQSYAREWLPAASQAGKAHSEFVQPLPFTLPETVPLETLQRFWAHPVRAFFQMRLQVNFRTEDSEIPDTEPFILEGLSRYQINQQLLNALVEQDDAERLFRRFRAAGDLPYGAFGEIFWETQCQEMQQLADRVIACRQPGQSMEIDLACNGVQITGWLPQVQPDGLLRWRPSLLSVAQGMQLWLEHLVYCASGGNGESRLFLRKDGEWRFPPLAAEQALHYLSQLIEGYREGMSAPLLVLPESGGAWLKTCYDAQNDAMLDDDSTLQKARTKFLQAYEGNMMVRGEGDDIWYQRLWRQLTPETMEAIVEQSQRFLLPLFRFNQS
T1 sequence (P08394 whole entry): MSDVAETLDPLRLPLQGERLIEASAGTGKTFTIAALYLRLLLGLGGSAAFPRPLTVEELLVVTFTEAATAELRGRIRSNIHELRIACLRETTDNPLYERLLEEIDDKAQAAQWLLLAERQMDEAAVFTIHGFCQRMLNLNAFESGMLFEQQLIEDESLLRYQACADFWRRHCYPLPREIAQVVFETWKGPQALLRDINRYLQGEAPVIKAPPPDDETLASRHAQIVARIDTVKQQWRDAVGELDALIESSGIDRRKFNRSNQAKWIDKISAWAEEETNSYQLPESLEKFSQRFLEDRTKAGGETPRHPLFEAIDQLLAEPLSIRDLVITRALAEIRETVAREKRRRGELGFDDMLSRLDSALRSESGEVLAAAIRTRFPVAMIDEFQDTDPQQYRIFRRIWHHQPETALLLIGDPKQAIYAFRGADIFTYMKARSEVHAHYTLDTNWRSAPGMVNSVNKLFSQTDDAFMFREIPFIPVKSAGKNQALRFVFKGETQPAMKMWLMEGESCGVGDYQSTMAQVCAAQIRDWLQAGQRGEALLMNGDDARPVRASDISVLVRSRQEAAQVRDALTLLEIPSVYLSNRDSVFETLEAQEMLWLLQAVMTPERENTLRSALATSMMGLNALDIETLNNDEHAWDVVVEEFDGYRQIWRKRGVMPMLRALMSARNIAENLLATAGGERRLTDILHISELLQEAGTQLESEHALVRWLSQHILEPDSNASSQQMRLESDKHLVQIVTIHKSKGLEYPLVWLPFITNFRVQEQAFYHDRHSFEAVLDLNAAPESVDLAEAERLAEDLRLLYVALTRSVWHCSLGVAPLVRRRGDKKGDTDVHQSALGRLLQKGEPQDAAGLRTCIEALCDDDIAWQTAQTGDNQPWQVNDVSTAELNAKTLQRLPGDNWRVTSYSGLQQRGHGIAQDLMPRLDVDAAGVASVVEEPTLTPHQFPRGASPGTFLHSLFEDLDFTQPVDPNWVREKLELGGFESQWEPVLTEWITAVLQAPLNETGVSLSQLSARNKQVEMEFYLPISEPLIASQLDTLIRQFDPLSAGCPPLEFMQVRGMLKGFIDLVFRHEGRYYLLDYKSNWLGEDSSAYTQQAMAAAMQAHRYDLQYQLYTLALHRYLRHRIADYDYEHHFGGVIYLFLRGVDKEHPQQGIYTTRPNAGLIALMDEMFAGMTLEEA
In words: E. coli RecBCD inhibitors, dose response, counter-screen for AddAB inhibitor project, absorbance, V66 E. coli, mutant T4 phage (AID 492957). It counts as functional, cell-based, Escherichia coli str. K-12 substr. MG1655.

Experiment [3] in a line: Vero E6 cell cytotoxicity, dose response, cytotoxicity control for non-replicating M. tuberculosis project, secondary assay (AID 492998). It counts as functional, VeroE6. To be noted: Vero C1008.
Experiment [4] in a line: THP-1 cell cytotoxicity, dose response, cytotoxicity control for non-replicating M. tuberculosis project (AID 489025). It counts as functional.
Experiment [5] in a line: cells. It counts as functional.
The subject of experiment [6] is Vero. The experiment in a line: cells. To be noted: Chlorocebus sabaeus. It counts as functional, cell-based.
Experiment [7] has as its target T2, Short transient receptor potential channel 4 (Mus musculus, UniProt Q9QUQ5).
T2 sequence (Q9QUQ5 whole entry): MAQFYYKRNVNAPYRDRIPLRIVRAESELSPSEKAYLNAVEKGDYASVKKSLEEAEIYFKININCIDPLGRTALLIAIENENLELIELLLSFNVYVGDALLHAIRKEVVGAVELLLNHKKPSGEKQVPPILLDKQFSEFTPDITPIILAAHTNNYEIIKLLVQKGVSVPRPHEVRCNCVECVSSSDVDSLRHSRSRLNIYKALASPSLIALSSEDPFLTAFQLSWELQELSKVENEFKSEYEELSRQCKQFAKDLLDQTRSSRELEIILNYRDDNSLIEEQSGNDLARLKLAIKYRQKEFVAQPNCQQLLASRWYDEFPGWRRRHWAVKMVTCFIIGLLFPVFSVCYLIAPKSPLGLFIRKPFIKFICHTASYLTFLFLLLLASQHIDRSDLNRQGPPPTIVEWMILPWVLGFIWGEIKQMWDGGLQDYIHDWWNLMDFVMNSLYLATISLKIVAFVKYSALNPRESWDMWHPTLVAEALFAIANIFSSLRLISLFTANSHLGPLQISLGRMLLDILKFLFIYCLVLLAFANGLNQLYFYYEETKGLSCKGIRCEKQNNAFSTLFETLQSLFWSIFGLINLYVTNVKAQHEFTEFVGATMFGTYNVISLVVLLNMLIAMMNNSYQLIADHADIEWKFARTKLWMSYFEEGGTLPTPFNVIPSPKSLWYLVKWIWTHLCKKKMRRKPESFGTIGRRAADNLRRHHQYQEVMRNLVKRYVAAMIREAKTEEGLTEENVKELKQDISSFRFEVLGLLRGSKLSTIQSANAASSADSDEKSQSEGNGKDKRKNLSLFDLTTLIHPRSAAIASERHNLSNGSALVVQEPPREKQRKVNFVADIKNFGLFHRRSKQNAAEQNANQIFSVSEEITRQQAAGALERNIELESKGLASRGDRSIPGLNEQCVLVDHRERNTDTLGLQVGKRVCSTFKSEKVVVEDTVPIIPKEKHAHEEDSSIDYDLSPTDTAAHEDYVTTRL
In words: mouse TRPC4 channel activators, dose response, cell-based, HEK293 TRPC4/mu-opioid, Fluo-4 calcium (AID 434937). It counts as functional.

In experiment [8] the test system is Vero. The experiment in a line: cells. It counts as functional. The note with it: Chlorocebus sabaeus.
The target in experiment [9] is Heat shock protein HSP 90-alpha (Homo sapiens, UniProt P07900). It counts as functional, organism-based.
The target of experiment [10] is T3, Streptokinase A (Streptococcus pyogenes serotype M1, UniProt P10520).
T3 sequence (P10520 whole entry): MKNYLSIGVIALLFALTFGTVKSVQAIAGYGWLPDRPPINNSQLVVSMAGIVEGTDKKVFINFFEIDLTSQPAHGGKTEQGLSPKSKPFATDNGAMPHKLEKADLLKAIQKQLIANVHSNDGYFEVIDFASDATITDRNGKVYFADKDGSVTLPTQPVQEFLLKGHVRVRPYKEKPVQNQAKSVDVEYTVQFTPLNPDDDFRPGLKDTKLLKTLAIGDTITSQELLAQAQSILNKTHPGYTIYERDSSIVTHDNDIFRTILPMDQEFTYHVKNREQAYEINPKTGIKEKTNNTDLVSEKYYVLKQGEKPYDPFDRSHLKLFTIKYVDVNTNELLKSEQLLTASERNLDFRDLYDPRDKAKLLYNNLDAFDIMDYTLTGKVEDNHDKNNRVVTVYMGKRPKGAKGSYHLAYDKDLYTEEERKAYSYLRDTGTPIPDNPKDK
The experiment in a line: S. pyogenes streptokinase expression inhibitors, potency, dose response, plasminogen activation absorbance, OD405 (AID 1914).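 Note: secreted streptokinase activity via plasminogen activation per viability signal from cell pellet.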 It counts as functional, Streptococcus pyogenes M1 GAS.

Experiment [11] in a line: cytotoxicity toward NIH3T3 fibroblasts, dose response, counter-screen, cell-based, ATP luminescence, mouse fibroblasts (AID 2010).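 Note: cells exposed to compound for about 90 hours before reading.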 It counts as functional.
In experiment [12] the test system is Streptococcus. In words: Group A Streptococcus viability loss, dose response, counter-screen for streptokinase expression inhibitor project, luminescence, BacTiterGlo (AID 1915).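 Note: potency for reduction of bacterial viability or growth.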 It counts as functional, organism-based.
Experiment [13] is described as follows: inhibitors of intracellular T. cruzi replication, confirmation, NIH3T3 host cells, beta-gal luminescence (AID 2044).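 Note: intracellular parasites grown in NIH/3T3 mouse fibroblasts as host cells; luminescent beta-galactosidase reporter signal from transgenic T. cruzi replicating inside host cells; inhibitors lower the luminescence signal.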 It counts as functional, cell-based.
The test system of experiment [14] is Streptococcus sp. 'group A'. In words: growth inhibition of control SK(-) GAS strain, dose response, counter-screen for streptokinase expression inhibitor project, luminescence, kanamycin, BacTiterGlo, confirmation (AID 1900). It counts as functional, organism-based.
Experiment [15] can be described thus: Luminescence Cell-Based Dose Retest to Confirm Inhibitors of Cancer Stem Cells. [Related pubchem assays (depositor defined):AID2717, AID2721]. It counts as functional. To be noted: Homo sapiens.
Experiment [16] is described as follows: cytotoxicity in HMLE control line with eGFP shRNA, dose response, counter-screen for HMLE_sh_ECad selective toxicity project, cell-based, HMLE_sh_eGFP, luminescence (AID 463074).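 Note: HMLE human mammary epithelial cells expressing control shRNA against eGFP.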 It counts as functional, Homo sapiens.

Calls of active or inactive are those of the source.

`COc1ccc2nc(NC(=O)CCNC(=O)c3ccco3)sc2c1`: the IC50 in experiment [1] and in [2] was > 119 µM (inactive) in each case.
For the molecule `NC(=NOC(=O)c1ccccc1Cl)c1ncc([N+](=O)[O-])s1`, the CC50 in experiment [3] is > 20 µM (active); in experiment [4] it was 34.4 µM (active). Also, the figures for the IC50 in experiment [1], in experiment [2] and in experiment [5] were > 119 µM (inactive), > 119 µM (inactive) and 3.81 µM (active), respectively.
On to `c1ccc(Nc2nc(Nc3ccccc3)nc(N3CCNCC3)n2)cc1`, for which the values for the CC50 in experiment [3], in experiment [4] and in experiment [8] were > 20 µM (active), 23 µM (active) and 22.6 µM (active), respectively. For the same molecule, the values for the IC50 in experiment [5] and in experiment [6] were 26.5 µM (active) and > 25 µM (active), respectively. For the same molecule, the EC50 in experiment [7] is 3.35 µM (active).
For the molecule `CCCC(=O)NC(c1ccco1)c1cc(Cl)c2cccnc2c1O` (stereo not drawn), the AC50 in [9] was 4.25 µM (active). In addition, the EC50 in [10] is > 150 µM (not active); in experiment [11], 5.04 µM (active); in experiment [12] it was 32 µM (active); in [13], 3.44 µM (active); in experiment [14] it was 1.18 µM (active). Besides, the IC50 in experiment [1] and in experiment [2] was > 119 µM (inactive) in each case.
With `COc1ccc(CCNC(=O)c2cc(-c3ccc(Cl)c(Cl)c3)oc2C)cc1`, the EC50 in [10] was 6.21 µM (inconclusive); in experiment [12] it was 22.4 µM (active); in [14], 7.72 µM (active). The AC50 in [15] is 3.04 µM (active); in experiment [16], 48.4 µM (active).
Regarding `CCN(CC)CCNCc1ccc(-c2ccc(Cl)cc2)o1`, the AC50 is 8.94 µM (active) in experiment [15] and 20.9 µM (active) in experiment [16].
